Results as given in patent US20250032485A1, “APPLICATION OF IMIDAZO [1,2-A] PYRAZINE COMPOUNDS OR THEIR PHARMACEUTICALLY ACCEPTABLE SALTS IN THE PREPARATION OF ANTI-CORONAVIRUS DRUGS” (GUANGZHOU MEDICAL UNIVERSITY, priority 2023, published 2025).

biological target: PLpro of SARS-CoV-2 (Severe acute respiratory syndrome coronavirus 2, UniProt P0DTD1); assay: Enzyme activity test in vitro: inhibition of PLpro at fixed concentration 50 μM (RLRGG-AMC substrate); type: biochemical; conditions: read-out: Inhibition rate at 50 μM (%)

Question: Which inhibition at 50 µM does the source give for `O=C(O)c1ccc(Nc2c(-c3cccc(Br)c3)nc3cnccn23)cc1` [P18234, 4-[[2-(3-bromophenyl)imidazo[1,2-a]pyrazin-3-yl]amino] benzoic acid] here?
Answer: 20.5%

Question: For `COc1ccc(-c2nc3cnccn3c2Nc2ccc3c(c2)OCO3)cc1OC` [P19444, N-(1,3-benzodioxol-5-yl)-2-(3,4-dimethoxy-phenyl)imidazo [1,2-a]pyrazin-3-amine], which inhibition at 50 µM is on record?
Answer: 42.2%

Question: How did the inhibition at 50 µM turn out when `CN(C)c1ccc(-c2nc3cnccn3c2Nc2cccc(C(=O)O)c2)cc1` [P19447, 3-[[2-[4-(dimethyl-amino)phenyl]imidazo [1,2-a]pyrazin-3-yl]amino]benzoic acid] was run?
Answer: 42.1%

Question: `O=C(O)c1cccc(Nc2c(-c3cccc(Cl)c3)nc3cnccn23)c1` [P19457, 3-[[2-(3-chlorophenyl)imidazo[1,2-a]pyrazin-3-yl]amino] benzoic acid] was tested. Which inhibition at 50 µM did it give?
Answer: 39.7%

Question: With `COc1ccc(-c2nc3cnccn3c2Nc2ccccc2C)cc1OC` [P19463, 2-(3,4-dimethoxy-phenyl)-N-(2-methylphenyl)imidazo[1,2-a]pyrazin-3-amine] as the molecule, how does the inhibition at 50 µM read?
Answer: 40.7%

Question: With `CNC(=O)c1ccc(Nc2c(-c3ccc(OC)c(OC)c3)nc3cnccn23)cc1` [P19464, 4-[[2-(3,4-dimethoxy-phenyl)imidazo[1,2-a]pyrazin-3-yl]amino]-N-methyl-benzamide] as the molecule, how does the inhibition at 50 µM read?
Answer: 42.2%

Question: How did the inhibition at 50 µM turn out when `Cc1ccc(-c2nc3cnccn3c2Nc2ccc(C(=O)O)cc2)cc1` [P19465, 4-[[2-(4-methyl-phenyl)imidazo[1,2-a]pyrazin-3-yl]amino] benzoic acid] was run?
Answer: 15.9%

Question: Which inhibition at 50 µM does the source give for `COC(=O)c1cccc(Nc2c(-c3cc(Br)ccc3O)nc3cnccn23)c1` [P19466, methyl 3-[[2-(5-bromo-2-hydroxyphenyl)imidazo [1,2-a]pyrazin-3-yl]amino]benzoate] here?
Answer: 31.9%

Question: `O=C(O)c1cccc(Nc2c(-c3cccc(Br)c3)nc3cnccn23)c1` [P19467, 3-[[2-(3-bromophenyl)imidazo[1,2-a]pyrazin-3-yl]amino] benzoic acid] was tested. Which inhibition at 50 µM did it give?
Answer: 27.3%

Question: Which inhibition at 50 µM does the source give for `CNC(=O)c1ccc(Nc2c(-c3ccc(OC)cc3)nc3cnccn23)cc1` [P19472, 4-[[2-(4-methoxy-phenyl)imidazo[1,2-a]pyrazin-3-yl]amino]-N-methylbenzamide] here?
Answer: 28.1%

Question: Which inhibition at 50 µM does the source give for `COc1ccc(-c2nc3cnccn3c2Nc2ccc(C(C)C)cc2)cc1OC` [P19473, 2-(3,4-dimethoxy-phenyl)-N-(4-propan-2-ylphenyl)imidazo [1,2-a]pyrazin-3-amine] here?
Answer: 37.5%

Question: With `CN(C)c1ccc(-c2nc3cnccn3c2Nc2ccc(C(=O)O)cc2)cc1` [P19475, 4-[[2-[4-(dimethyl-amino)phenyl]imidazo [1,2-a]pyrazin-3-yl]amino]benzoic acid] as the molecule, how does the inhibition at 50 µM read?
Answer: 35.1%

Question: How did the inhibition at 50 µM turn out when `COC(=O)c1cccc(Nc2c(-c3ccccc3)nc3cnccn23)c1` [P19476, methyl 3-[(2-phenylimidazo [1,2-a]pyrazin-3-yl)amino]benzoate] was run?
Answer: 34%

Question: How did the inhibition at 50 µM turn out when `O=C(O)c1cccc(Nc2c(-c3ccc(F)cc3)nc3cnccn23)c1` [P19477, 3-[[2-(4-fluorophenyl)imidazo[1,2-a]pyrazin-3-yl]amino] benzoic acid] was run?
Answer: 5.91%

Question: `CNC(=O)c1ccc(Nc2c(-c3ccc(C)cc3)nc3cnccn23)cc1` [P19482, N-methyl-4-[[2-(4-methylphenyl)imidazo [1,2-a]pyrazin-3-yl]amino]benzamide] was tested. Which inhibition at 50 µM did it give?
Answer: 34.1%

Question: For `COc1ccc(-c2nc3cnccn3c2Nc2c(C)cccc2C)cc1OC` [P19483, 2-(3,4-dimethoxy-phenyl)-N-(2,6-di-methylphenyl)imidazo [1,2-a]pyrazin-3-amine], which inhibition at 50 µM is on record?
Answer: 37.8%

Question: For `COC(=O)c1ccc(-c2nc3cnccn3c2Nc2ccc(Cl)cc2)cc1` [P19484, methyl 4-[3-(4-chloroanilino)imidazo[1,2-a]pyrazin-2-yl]benzoate], which inhibition at 50 µM is on record?
Answer: 42.4%

Question: With `COC(=O)c1cccc(Nc2c(-c3ccc(OC)cc3)nc3cnccn23)c1` [P19485, methyl 3-[[2-(4-methoxy-phenyl)imidazo[1,2-a]pyrazin-3-yl]amino] benzoate] as the molecule, how does the inhibition at 50 µM read?
Answer: 36%

Question: How did the inhibition at 50 µM turn out when `COc1ccc(-c2nc3cnccn3c2Nc2cccc(C(=O)O)c2)cc1` [P19486, 3-[[2-(4-methoxy-phenyl)imidazo[1,2-a]pyrazin-3-yl]amino] benzoic acid] was run?
Answer: 40.1%

Question: How did the inhibition at 50 µM turn out when `O=C(O)c1cccc(Nc2c(-c3cc(Br)ccc3O)nc3cnccn23)c1` [P19487, 3-[[2-(5-bromo-2-hydroxyphenyl)imidazo [1,2-a]pyrazin-3-yl]amino]benzoic acid] was run?
Answer: 27.3%

Question: How did the inhibition at 50 µM turn out when `NC(=O)c1cccc(Nc2c(-c3ccc(Cl)cc3)nc3cnccn23)c1` [P19492, 3-[[2-(4-chlorophenyl)imidazo[1,2-a]pyrazin-3-yl]amino] benzamide] was run?
Answer: 35.4%

Question: Which inhibition at 50 µM does the source give for `COc1ccc(Nc2c(-c3ccc(OC)c(OC)c3)nc3cnccn23)cc1` [P19493, 2-(3,4-dimethoxy-phenyl)-N-(4-methoxy-phenyl)imidazo[1,2-a]pyrazin-3-amine] here?
Answer: 32.3%

Question: `COC(=O)c1ccc(-c2nc3cnccn3c2Nc2cccc(C(=O)OC)c2)cc1` [P19494, methyl 3-[[2-(4-methoxy-carbonylphenyl)imidazo [1,2-a]pyrazin-3-yl]amino]benzoate] was tested. Which inhibition at 50 µM did it give?
Answer: 25.4%

Question: With `COC(=O)c1cccc(Nc2c(-c3ccc(SC)cc3)nc3cnccn23)c1` [P19495, methyl 3-[[2-(4-methyl-sulfanylphenyl)imidazo [1,2-a]pyrazin-3-yl]amino]benzoate] as the molecule, how does the inhibition at 50 µM read?
Answer: 41.7%

Question: With `O=C(O)c1cccc(Nc2c(-c3ccc(O)cc3)nc3cnccn23)c1` [P19496, 3-[[2-(4-hydroxy-phenyl)imidazo[1,2-a]pyrazin-3-yl]amino] benzoic acid] as the molecule, how does the inhibition at 50 µM read?
Answer: 40.5%

Question: For `O=C(O)c1cccc(Nc2c(-c3ccccc3)nc3cnccn23)c1` [P19497, 3-[(2-phenylimidazo [1,2-a]pyrazin-3-yl)amino]benzoic acid], which inhibition at 50 µM is on record?
Answer: 31.2%

Question: With `CSc1ccc(-c2nc3cnccn3c2Nc2cccc(C(N)=O)c2)cc1` [P19502, 3-[[2-(4-methyl-sulfanylphenyl)imidazo [1,2-a]pyrazin-3-yl]amino]benzamide] as the molecule, how does the inhibition at 50 µM read?
Answer: 39.1%

Question: `COc1ccc(-c2nc3cnccn3c2Nc2ccc(Cl)cc2)cc1OC` [P19503, N-(4-chlorophenyl)-2-(3,4-dimethoxy-phenyl)imidazo[1,2-a]pyrazin-3-amine] was tested. Which inhibition at 50 µM did it give?
Answer: 43.6%

Question: With `CCOC(=O)c1ccc(Nc2c(-c3ccc(O)cc3)nc3cnccn23)cc1` [P19504, ethyl 4-[[2-(4-hydroxy-phenyl)imidazo[1,2-a]pyrazin-3-yl]amino] benzoate] as the molecule, how does the inhibition at 50 µM read?
Answer: 32.6%

Question: How did the inhibition at 50 µM turn out when `COC(=O)c1cccc(Nc2c(-c3ccc(O)c(OC)c3)nc3cnccn23)c1` [P19505, methyl 3-[[2-(4-hydroxy-3-methoxyphenyl)imidazo [1,2-a]pyrazin-3-yl]amino]benzoate] was run?
Answer: 44.7%

Question: `COc1cc(-c2nc3cnccn3c2Nc2cccc(C(=O)O)c2)ccc1O` [P19506, 3-[[2-(4-hydroxy-3-methoxyphenyl)imidazo [1,2-a]pyrazin-3-yl]amino]benzoic acid] was tested. Which inhibition at 50 µM did it give?
Answer: 34%

Question: With `CNC(=O)c1cccc(Nc2c(-c3ccc(Cl)cc3)nc3cnccn23)c1` [P19512, 3-[[2-(4-chlorophenyl)imidazo[1,2-a]pyrazin-3-yl]amino]-N-methylbenzamide] as the molecule, how does the inhibition at 50 µM read?
Answer: 41.6%

Question: `CCc1cccc(C)c1Nc1c(-c2ccc(OC)c(OC)c2)nc2cnccn12` [P19513, 2-(3,4-dimethoxy-phenyl)-N-(2-ethyl-6-methylphenyl)imidazo [1,2-a]pyrazin-3-amine] was tested. Which inhibition at 50 µM did it give?
Answer: 38.8%

Question: With `COc1ccc(-c2nc3cnccn3c2Nc2ccc(C(=O)O)cc2)cc1` [P19514, 4-[[2-(4-methoxy-phenyl)imidazo[1,2-a]pyrazin-3-yl]amino] benzoic acid] as the molecule, how does the inhibition at 50 µM read?
Answer: 36%

Question: `COC(=O)c1cccc(Nc2c(-c3ccc(C)cc3)nc3cnccn23)c1` [P19515, methyl 3-[[2-(4-methyl-phenyl)imidazo[1,2-a]pyrazin-3-yl]amino] benzoate] was tested. Which inhibition at 50 µM did it give?
Answer: 37.1%

Question: For `O=C(O)c1cccc(Nc2c(-c3ccc(Cl)cc3)nc3cnccn23)c1` [P19516, 3-[[2-(4-chlorophenyl)imidazo[1,2-a]pyrazin-3-yl]amino] benzoic acid], which inhibition at 50 µM is on record?
Answer: 32.8%

Question: Which inhibition at 50 µM does the source give for `CCNC(=O)c1ccc(Nc2c(-c3ccc(Cl)cc3)nc3cnccn23)cc1` [P22402, 4-[[2-(4-chlorophenyl)imidazo[1,2-a]pyrazin-3-yl]amino]-N-ethylbenzamide] here?
Answer: 31.3%

Question: `COc1ccc(-c2nc3cnccn3c2Nc2ccc(C(=O)NCCN3CCOCC3)cc2)cc1` [P22403, 4-[[2-(4-methoxy-phenyl)imidazo[1,2-a]pyrazin-3-yl]amino]-N-(2-morpholin-4-ylethyl)benzamide] was tested. Which inhibition at 50 µM did it give?
Answer: 31.7%

Question: With `O=C(NC1CCCCC1)c1ccc(Nc2c(-c3ccccc3)nc3cnccn23)cc1` [P22404, N-cyclohexyl-4-[(2-phenylimidazo[1,2-a]pyrazin-3-yl)amino] benzamide] as the molecule, how does the inhibition at 50 µM read?
Answer: 26.1%

Question: For `COc1ccc(-c2nc3cnccn3c2Nc2ccc(C(=O)N3CCOCC3)cc2)cc1` [P22405, [4-[[2-(4-methoxy-phenyl)imidazo[1,2-a]pyrazin-3-yl]amino]phenyl]-morpholin-4-ylmethanone], which inhibition at 50 µM is on record?
Answer: 36.5%

Question: How did the inhibition at 50 µM turn out when `CN(C)c1ccc(-c2nc3cnccn3c2Nc2cccc(C(N)=O)c2)cc1` [P22406, 3-[[2-[4-(dimethyl-amino)phenyl]imidazo [1,2-a]pyrazin-3-yl]amino]benzamide] was run?
Answer: 37.2%

Question: Which inhibition at 50 µM does the source give for `CC(C)NC(=O)c1cccc(Nc2c(-c3ccc(Cl)cc3)nc3cnccn23)c1` [P22407, 3-[[2-(4-chlorophenyl)imidazo[1,2-a]pyrazin-3-yl]amino]-N-propan-2-ylbenzamide] here?
Answer: 32.6%

Question: `O=C(NCC1CCCO1)c1cccc(Nc2c(-c3ccc(Cl)cc3)nc3cnccn23)c1` (stereo not drawn) [P22408, 3-[[2-(4-chlorophenyl)imidazo[1,2-a]pyrazin-3-yl]amino]-N-(oxolan-2-ylmethyl)benzamide] was tested. Which inhibition at 50 µM did it give?
Answer: 17.3%

Question: With `O=C(c1cccc(Nc2c(-c3ccccc3)nc3cnccn23)c1)N1CCOCC1` [P22409, morpholin-4-yl-[3-[(2-phenylimidazo [1,2-a]pyrazin-3-yl)amino]phenyl] methanone] as the molecule, how does the inhibition at 50 µM read?
Answer: 28.2%

Question: For `CCNC(=O)c1ccc(Nc2c(-c3ccc(OC)c(OC)c3)nc3cnccn23)cc1` [P22410, 4-[[2-(3,4-dimethoxy-phenyl)imidazo[1,2-a]pyrazin-3-yl]amino]-N-ethylbenzamide], which inhibition at 50 µM is on record?
Answer: 42.2%
